Measured values from patent publication US12139498B1, “Positive allosteric modulators of the muscarinic acetylcholine receptor M4” (Vanderbilt University, priority 2023, dated 2024).

Target: T1, Human M4 (Homo sapiens, UniProt P08173)
T1 sequence (P08173 1-479): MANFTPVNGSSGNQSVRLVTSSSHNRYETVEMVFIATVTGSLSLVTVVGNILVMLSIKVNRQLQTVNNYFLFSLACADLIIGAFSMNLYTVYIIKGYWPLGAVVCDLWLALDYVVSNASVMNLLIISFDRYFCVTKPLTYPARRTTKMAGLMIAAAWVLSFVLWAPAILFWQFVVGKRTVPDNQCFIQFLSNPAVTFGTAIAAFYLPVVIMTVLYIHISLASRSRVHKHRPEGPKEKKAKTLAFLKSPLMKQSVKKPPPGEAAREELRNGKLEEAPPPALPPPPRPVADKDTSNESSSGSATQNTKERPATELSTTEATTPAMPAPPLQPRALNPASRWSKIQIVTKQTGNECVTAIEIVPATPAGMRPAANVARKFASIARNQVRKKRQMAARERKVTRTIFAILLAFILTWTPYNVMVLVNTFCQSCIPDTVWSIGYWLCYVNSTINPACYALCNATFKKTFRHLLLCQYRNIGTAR
Test: M4 cell-based functional assay (calcium mobilization)
Design: expressed in transfected cells
Settings: for Emax at 30 µM: % ACh maximum at 30 μM; for EC50: CHO-K1 hM4-Gqi5 cells, calcium flux, increase in EC20 acetylcholine response
Description: Human (h) and rat (r) M4 CDNAs, along with the chimeric G protein Gqi5, were transfected into Chinese hamster ovary (CHO-K1) cells purchased from the American Type Culture Collection using Lipofectamine2000. The transfected cells were subjected to selection antibiotic treatment to generate stable cell lines; G418 sulfate (1 mg/ml) for selecting M4 expressing cells and Hygromycin B (500 μg/mL) for selecting Gqi5 expressing cells. The resulting polyclones were further screened to obtain monoclones of hM4-Gqi5 and rM4-Gqi5 for compound screening assay. Stable monoclone cells were maintained in Ham's F-12 medium containing 10% heat-inactivated fetal bovine serum (FBS), 1× Antibiotic/Antimycotic, 20 mM HEPES, 500 μg/mL G418 sulfate, and 200 μg/mL Hygromycin B in 37° C. humidified incubators in the presence of 5% CO2.
The high throughput assay was employed to measure receptor-induced mobilization of intracellular calcium to determine compound activity. Test compound was added to cells expressing the muscarinic receptors that were loaded with calcium sensitive fluorescent dye. After a ˜2.5 minute incubation period, a submaximal (EC20) concentration of acetylcholine was added, and the response measured. This kinetic assay allows for simultaneous screening and potency determination of multiple pharmacological modes of action including agonist and potentiator activity. CHO-K1 cells stably expressing muscarinic receptors were plated in growth medium lacking G418 and hygromycin at 15,000 cells/20 μL/well in Greiner 384-well black-walled, tissue culture (TC)-treated, clear-bottom plates (Greiner Bio-One). Cells were incubated overnight at 37° C. and 5% CO2. The next day, calcium assay buffer (Hank's balanced salt solution (HBSS), 20 mM HEPES, 2.5 mM Probenecid, 4.16 mM sodium bicarbonate (Sigma-Aldrich, St. Louis, MO)) was prepared to dilute compounds, agonists, and Fluo-4-acetomethoxyester (Fluo-4-AM), fluorescent calcium indicator dye. Compounds were serially diluted 1:3 into 10 point concentration response curves in DMSO using the Bravo Liquid Handler (Agilent, Santa Clara, CA), transferred to a 384 well daughter plates using an Echo acoustic liquid handler (Beckman Coulter, Indianapolis, Indiana), and diluted in assay Buffer to a 2× final concentration. The agonist plates were prepared using acetylcholine (ACh, Sigma-Aldrich, St. Louis, MO) concentrations for the EC20 and ECMAX responses by diluting in assay buffer to a 5× final concentration. The 2× dye solution (2.3 μM) was prepared by mixing a 2.3 mM Fluo-4-AM stock in DMSO with 10% (w/v) pluronic acid F-127 in a 1:1 ratio in assay buffer. Using a microplate washer (BioTek, Winooski, VT), cells were washed with assay buffer for 3 times to remove medium. After the final wash, 20 μL of assay buffer remained in the cell plates. Immediately, 20 μL of the 2× dye solution (final 1.15 μM) was added to each well of the cell plate using a Multidrop Combi dispenser (Thermo Fisher, Waltham, MA). After cells were incubated with the dye solutions for 45 min at 37° C. in the presence of 5% CO2, the dye solutions were removed and replaced with assay buffer using a microplate washer, leaving 20 μL of assay buffer in the cell plate.
The prepared compound, agonist, and cell plates were placed inside the Functional Drug Screening System uCell (FDSS uCell, Hamamatsu, Japan) to measure the calcium flux.
The triple add protocol was used to measure Ca kinetics; Compound, ACh for EC2O, and ACh for EC80 adds in an order. Briefly, after establishment of a fluorescence baseline for 2 seconds (excitation, 480 nm; emission, 530 nm), first add occurred by adding 20 μL of test compound to the cells, and the response was measured for 140 seconds. This is followed by second add; 10 μL (5×) of an EC20 concentration of ACh agonist was added to the cells, and the response of the cells was measured for 125 seconds. […]

Emax at 30 µM | EC50 | Structure (SMILES)
92% | 0.059 µM | Cc1cc(C#N)cnc1N1CCc2nc(Br)sc2C1 [Compound 1, 6-(2-bromo-6,7-dihydrothiazolo[5,4-c]pyridin-5(4H)-yl)-5-methylnicotinonitrile]
59% | 0.612 µM | Cc1cc(-c2nc3c(s2)CN(c2ncc(C#N)cc2C)CC3)ccn1 [Compound 2, 5-methyl-6-(2-(2-methylpyridin-4-yl)-6,7-dihydrothiazolo[5,4-c]pyridin-5(4H)-yl)nicotinonitrile]
45% | > 10 µM | Cc1cc(C#N)cnc1N1CCc2nc(-c3cncs3)sc2C1 [Compound 3, 5-methyl-6-(2-(thiazol-5-yl)-6,7-dihydrothiazolo[5,4-c]pyridin-5(4H)-yl)nicotinonitrile]
54% | > 10 µM | Cc1cc(C#N)cnc1N1CCc2nc(-c3cnn(C4CCC4)c3)sc2C1 [Compound 4, 6-(2-(1-cyclobutyl-1H-pyrazol-4-yl)-6,7-dihydrothiazolo[5,4-c]pyridin-5(4H)-yl)-5-methylnicotinonitrile]
43% | > 10 µM | Cc1c(C#N)nnc(N2CCc3nc(Nc4ccccc4F)sc3C2)c1C [Compound 5, 6-(2-((2-fluorophenyl)amino)-6,7-dihydrothiazolo[5,4-c]pyridin-5(4H)-yl)-4,5-dimethylpyridazine-3-carbonitrile]
41% | > 10 µM | Cc1c(C#N)nnc(N2CCc3nc(Nc4cccc(F)c4)sc3C2)c1C [Compound 6, 6-(2-((3-fluorophenyl)amino)-6,7-dihydrothiazolo[5,4-c]pyridin-5(4H)-yl)-4,5-dimethylpyridazine-3-carbonitrile]
49% | 1.29 µM | Cc1c(C#N)nnc(N2CCc3nc(Nc4ccc(F)cc4)sc3C2)c1C [Compound 7, 6-(2-((4-fluorophenyl)amino)-6,7-dihydrothiazolo[5,4-c]pyridin-5(4H)-yl)-4,5-dimethylpyridazine-3-carbonitrile]
79% | 0.732 µM | COc1nc2c(s1)CN(c1nnc(C#N)c(C)c1C)CC2 [Compound 8, 6-(2-methoxy-6,7-dihydrothiazolo[5,4-c]pyridin-5(4H)-yl)-4,5-dimethylpyridazine-3-carbonitrile]
98% | 0.66 µM | Cc1nc(Cl)c(C)c(N2CCc3nc(C)sc3C2)n1 [Compound 9, 5-(6-chloro-2,5-dimethylpyrimidin-4-yl)-2-methyl-4,5,6,7-tetrahydrothiazolo[5,4-c]pyridine]
85% | 0.114 µM | Cc1c(C#N)nnc(N2CCc3nc(Br)sc3C2)c1C [Compound 10, 6-(2-bromo-6,7-dihydrothiazolo[5,4-c]pyridin-5(4H)-yl)-4,5-dimethylpyridazine-3-carbonitrile]
85% | 0.103 µM | Cc1nc(Cl)c(C)c(N2CCc3nc(Br)sc3C2)n1 [Compound 11, 2-bromo-5-(6-chloro-2,5-dimethylpyrimidin-4-yl)-4,5,6,7-tetrahydrothiazolo[5,4-c]pyridine]
76% | 0.161 µM | Cc1c(C#N)nnc(N2CCc3nc(C4CC4)sc3C2)c1C [Compound 12, 6-(2-cyclopropyl-6,7-dihydrothiazolo[5,4-c]pyridin-5(4H)-yl)-4,5-dimethylpyridazine-3-carbonitrile]
78% | 1.21 µM | Cc1c(C#N)nnc(N2CCc3nc(C#N)sc3C2)c1C [Compound 13, 5-(6-cyano-4,5-dimethylpyridazin-3-yl)-4,5,6,7-tetrahydrothiazolo[5,4-c]pyridine-2-carbonitrile]
51% | 5.23 µM | Cc1nc(Cl)c(C)c(N2CCc3nc(Nc4ccccc4F)sc3C2)n1 [Compound 14, 5-(6-chloro-2,5-dimethylpyrimidin-4-yl)-N-(2-fluorophenyl)-4,5,6,7-tetrahydrothiazolo[5,4-c]pyridin-2-amine]
87% | 0.371 µM | Cc1nc2c(s1)CN(c1ncc(C#N)cc1C)CC2 [Compound 15, 5-methyl-6-(2-methyl-6,7-dihydrothiazolo[5,4-c]pyridin-5(4H)-yl)nicotinonitrile]
84% | 0.103 µM | Cc1cc(C#N)cnc1N1CCc2nc(C3CC3)sc2C1 [Compound 16, 6-(2-cyclopropyl-6,7-dihydrothiazolo[5,4-c]pyridin-5(4H)-yl)-5-methylnicotinonitrile]
92% | 3.17 µM | Cc1cc(C#N)cnc1N1CCc2ncsc2C1 [Compound 17, 6-(6,7-dihydrothiazolo[5,4-c]pyridin-5(4H)-yl)-5-methylnicotinonitrile]
44% | 4.11 µM | Cc1cc(C#N)cnc1N1CCc2nc(NCc3cccc(F)c3)sc2C1 [Compound 18, 6-(2-((3-fluorobenzyl)amino)-6,7-dihydrothiazolo[5,4-c]pyridin-5(4H)-yl)-5-methylnicotinonitrile]
99% | 0.851 µM | Cc1cc(C#N)nnc1N1CCc2nc(Br)sc2C1 [Compound 19, 6-(2-bromo-6,7-dihydrothiazolo[5,4-c]pyridin-5(4H)-yl)-5-methylpyridazine-3-carbonitrile]
101% | 0.243 µM | [2H]C([2H])([2H])c1nc2c(s1)CN(c1ncc(C#N)cc1C)CC2 [Compound 20, 5-methyl-6-(2-(methyl-d3)-6,7-dihydrothiazolo[5,4-c]pyridin-5(4H)-yl)nicotinonitrile]
98% | 0.301 µM | Cc1cc(C#N)cnc1N1CCc2nc(C(N)=O)sc2C1 [Compound 21, 5-(5-cyano-3-methylpyridin-2-yl)-4,5,6,7-tetrahydrothiazolo[5,4-c]pyridine-2-carboxamide]
96% | 0.106 µM | Cc1coc2ncnc(N3CCc4nc(Br)sc4C3)c12 [Compound 22, 4-(2-bromo-6,7-dihydrothiazolo[5,4-c]pyridin-5(4H)-yl)-5-methylfuro[2,3-d]pyrimidine]
82% | 0.204 µM | Cc1csc2ncnc(N3CCc4nc(Br)sc4C3)c12 [Compound 23, 2-bromo-5-(5-methylthieno[2,3-d]pyrimidin-4-yl)-4,5,6,7-tetrahydrothiazolo[5,4-c]pyridine]
102% | 0.05 µM | Cc1cc2c(N3CCc4nc(Br)sc4C3)ncnc2s1 [Compound 24, 2-bromo-5-(6-methylthieno[2,3-d]pyrimidin-4-yl)-4,5,6,7-tetrahydrothiazolo[5,4-c]pyridine]
113% | 1.29 µM | Cc1noc2ncnc(N3CCc4nc(Br)sc4C3)c12 [Compound 25, 4-(2-bromo-6,7-dihydrothiazolo[5,4-c]pyridin-5(4H)-yl)-3-methylisoxazolo[5,4-d]pyrimidine]
